According to patent US12673052B2, “Combinations for the treatment of cancer” (Exelixis, Inc., priority 2020, dated 2026):

Legend:
[1] = Tablet versus PIB formulation, single oral 20 mg dose, parallel design; assay type: in vivo, dogs; settings: for half-life: po, read-out: t1/2, z (mean) (converted)
Method: In a parallel design study with a total of 24 dogs (1:1 treatment allocation ratio), Group 1 received Compound 1 as a 20-mg oral tablet and Group 2 received a 20-mg reconstituted oral suspension of the PIB formulation. For each dose group, blood samples were collected from each animal at pre-dose and up to 24 hours post-dose for Compound 1 plasma concentration measurements.

CYP2C19 = assay: Cytochrome P450 induction (mRNA levels) in fresh primary human hepatocytes; assay type: in vitro ADME
[2] = Toxicokinetics in 28-day repeat-dose toxicity study; assay type: in vivo, rats; settings: for half-life: oral, read-out: Half-life (t1/2)
Method: In a 28-day repeat-dose toxicity study in rats dosed orally daily with Compound 1 at 1, 3 or 10 mg/kg, Compound 1 exposure (Cmax and AUC0-24) increased with the increase in dose level from 1-10 mg/kg/day. […] Accumulation ratio values ranged from 0.721-1.14 for Cmax and from 0.722-0.891 for AUC0-24. Consistent with the single-dose PK data, exposure in rats at steady-state on Day 28 for low doses appeared to be approximately 20-fold higher than that observed in dogs.

[3] = In vitro plasma protein binding; assay type: in vitro ADME; settings: 0.2 and 1 μM
Method: (§1) Plasma PK of Compound 1 was characterized in rats and beagle dogs. Toxicokinetic (TK) evaluations of oral Compound 1 were evaluated in repeat-dose studies in rats and dogs. Plasma protein binding was determined in mouse, rat, dog, monkey, and human plasma in vitro. Biotransformation and metabolite profiling of Compound 1 were investigated in vitro using mouse, rat, dog, monkey, and human liver microsomal fractions and hepatocytes and in vivo in rats and dogs. P-glycoprotein (P-gp) and breast cancer resistance protein (BCRP) transporter interaction studies, in vitro experiments evaluating cytochrome P450 (CYP) induction and inhibition by Compound 1, and CYP and glucuronosyltransferase (UGT) substrate specificity studies of Compound 1 were also performed.
(§2) Compound 1 (10 μM) was 97.2 and 97.5% protein bound in monkey and human plasma, respectively.

[4] = Liver microsomal stability assay; assay type: in vitro ADME, rat; settings: liver microsomes
Method: (§3) In the liver microsomal stability assay, CLint was 0.601 mL/min/g liver in mouse, 0.563 mL/min/g liver in rat, 0.315 mL/min/g liver in dog, 0.734 mL/min/g liver in monkey, and 0.639 mL/min/g liver in human. In the hepatocyte stability assay, Compound 1 CLint was 0.373 mL/min/g liver in mouse, 0.285 mL/min/g liver in rat, 1.08 mL/min/g liver in dog, 0.533 mL/min/g liver in monkey, and 0.317 mL/min/g liver in human.

[5] = In vitro plasma protein binding; assay type: in vitro ADME, human
Method: as §1, §2

[6] = Liver microsomal stability assay; assay type: in vitro ADME, monkey; settings: liver microsomes
Method: as §3

advanced solid tumors = assay: Phase 1 first-in-human Study Compound 1-001 (NCT03845166): safety (DLT, adverse events) and preliminary clinical activity; assay type: in vivo
Description: The maximum tolerated dose (MTD) and/or recommended dose (RD) of Compound 1 single-agent therapy and ICI combination therapy will be determined in a Dose-Escalation Stage. The preliminary efficacy of Compound 1 as single agent and as ICI combination therapy will be determined in a Cohort-Expansion Stage with tumor-specific expansion cohorts. As of 14 Dec. 2020, dose escalation of Compound 1 as single agent and in combination therapy with atezolizumab was ongoing: 19 subjects were enrolled in single agent cohorts across six dose levels (PIB: 10, 20 mg; Tablet: 20, 40, 80, 140 mg); three subjects were enrolled in combination therapy with atezolizumab at one dose level (Compound 1 40 mg po qd plus atezolizumab 1200 mg IV q3w). As of 14 Dec. […] The majority of reported adverse events (AEs) were of low-grade severity (Grade 1-2) with five subjects having experienced treatment-related Grade 3 events.
In the Compound 1 single-agent dose-escalation cohorts, study drug will be administered qd for the first 28 days, which comprises the Dose-Limiting Toxicity (DLT) Evaluation Period. At the end of the 28-day DLT period, the Cohort Review Committee will review all available safety and PK data for cohorts containing at least 3 subjects and dose escalation to the next cohort may proceed if 0 out of 3 subjects or […] subjects experience(s) a DLT (as defined below). Dose escalation to the next cohort will not exceed a doubling of the Compound 1 dose; however, the Cohort Review Committee may decide to institute a less-than-doubling escalation between cohorts based on evaluation of safety and PK results from the current and previous cohorts.
Dose-limiting toxicity is defined as any of the following treatment-emergent AEs occurring during the DLT Evaluation Period for Compound 1 as single-agent therapy: • Any treatment-emergent AE that in the opinion of the Cohort Review Committee is of potential clinical significance such that further dose escalation of Compound 1 would expose subjects to unacceptable risk • Non-hematologic toxicity: treatment-emergent […] AEs • The following hematologic toxicities that are treatment-emergent: • Grade 3 thrombocytopenia with clinically significant bleeding • Grade 4 thrombocytopenia • Grade 4 neutropenia of 4 days duration • Grade 3 neutropenia of any duration with fever (single temperature of ≥38.3° C. [101.0° F.] or sustained temperature of ≥38.0° C. [100.4° F.] for ≥1 hour) or documented infection • Grade 4 anemia • Inability to take 75% of the total planned Compound 1 dose for the DLT Evaluation Period because of a treatment-emergent AE leading to a dose reduction and/or interruption • Any AE experienced during the DLT Evaluation Period that results in permanent discontinuation of Compound 1 For subjects receiving Compound 1 as combination therapy with atezolizumab or avelumab, the above in addition to the following are defined as DLTs: • Any related Grade 3 AE which is unexpected in severity and/or duration compared with the known safety profiles of Compound 1 and atezolizumab or avelumab when used as single agents, and that cannot be managed by dose modification (reduction or interruption) and adequate supportive care, and requires permanent discontinuation of Compound 1 and/or atezolizumab or avelumab. • Any AE experienced during the DLT Evaluation Period that results in permanent discontinuation of Compound 1 and/or atezolizumab or avelumab Note: AEs are presumed attributable to study drug. […]

[7] = Day 28 vs Day 1, 1-10 mg/kg/day

For `CNC(=O)c1cc2c(Oc3ccc(NC(=O)C4(C(=O)Nc5ccc(F)cc5)CC4)cc3)ccnc2cc1OC` [Compound 1, 1-N′-(4-Fluorophenvl)-1-N-[4-[7-methoxy-6-(methylcarbamovl)quinolin-4-yl]oxyphenyl]cyclopropane-1,1-dicarboxamide], the “mean AUC0-24 of PIB formulation higher than tablet formulation” value ([1]; 20 mg single oral dose) was 49%, the “mean Cmax of PIB formulation higher than tablet formulation” value ([1]; 20 mg single oral dose) was 61% and the Tmax ([1]; beagle, dog, plasma, oral, 20 mg, both formulations (PIB and tablet), read-out: median tmax) was 3 h. For the same compound, the half-life ([1]; beagle, dog, plasma, 20 mg, 20 mg reconstituted oral suspension of PIB formulation) was 291 min, the half-life ([1]; beagle, dog, plasma, 20 mg, 20-mg oral tablet) was 340 min and the EC50 (CYP2C19; human, fresh primary human hepatocytes, mRNA induction, read-out: half-maximal effective concentration (EC50)) was 6.21 µM. For the same compound, the “maximal induction effect (Emax)” value (CYP2C19; mRNA, 0.1-100 μM) was 6 fold, the “Sex differences in mean Cmax and AUC values” ([2]; 28-day study) was “less than 2 fold” and the “steady-state exposure in rats relative to dogs” value ([2]; Day 28, dose-normalized AUC0-24, ss, higher in rats) was “approximately 20 fold”. For the same compound, the “Accumulation ratio for AUC0-24” value [2, 7] was 0.722-0.891, the “Accumulation ratio for Cmax” value [2, 7] was 0.721-1.14 and the half-life ([2]; both sexes, rat, plasma, Day 1) was 211 to 222 min. It also gave a half-life ([2]; both sexes, rat, plasma, Day 28) of 402 to 538 min, a Tmax ([2]; both sexes, rat, plasma, oral daily 1, 3 or 10 mg/kg, Days 1 and 28) of 2 to 8 h and a fraction unbound ([3]; dog) of less than 0.01. The fraction unbound ([3]; mouse) was less than 0.01, the fraction unbound ([3]; rat) was less than 0.01 and the CLint [4] was 0.563 mL/min/g liver. The protein bound ([5]; 10 μM) was 97.5%, the fraction unbound ([5]; human, plasma, 0.2 and 1 μM) was less than 0.01 and the CLint [6] was 0.734 mL/min/g liver. The “subjects with treatment-related Grade 3 events” value (advanced solid tumors; as of 14 Dec. 2020) was “five subjects”, the “treatment-related Grade 4 or Grade 5 events” value (advanced solid tumors; as of 14 Dec. 2020) was “no treatment-related Grade 4 or Grade 5 events” and the tolerability (advanced solid tumors; single agent and in combination with ICI therapy) was “well tolerated”. For the same compound, the preliminary clinical activity (advanced solid tumors; single agent therapy and atezolizumab combination therapy cohorts) was “prolonged disease stabilization and tumor regressions” and the “DLTs observed among completed dose levels” value (advanced solid tumors; single agent, one subject at 140 mg po qd, Grade 3 uncontrolled hypertension) was “one DLT”.
